The data set can be described thus: Interconversion of solid forms as a function of relative humidity. In kind it is physicochemical. How it is done: A vessel containing 4-(5-Chloro-2-isopropylaminopyridin-4-yl)-1H-pyrrole-2-carboxylic acid [1-(3-chlorophenyl)-2-hydroxyethyl]amide Form A was purged with dry nitrogen and relative humidity was monitored. After about 73 minutes the relative humidity had decreased from 36.9% to 1.0%.

Where a name gives a salt, the structure may show the parent alone.

Data on two molecules can be found in US10183927B2, “Crystalline forms of C21H22Cl2N4O2” (BIOMED VALLEY DISCOVERIES, INC., priority 2015, dated 2019).

Regarding `CC(C)Nc1cc(-c2c[nH]c(C(=O)N[C@H](CO)c3cccc(Cl)c3)c2)c(Cl)cn1` [Form A, 4-(5-Chloro-2-isopropylaminopyridin-4-yl)-1H-pyrrole-2-carboxylic acid [1-(3-chlorophenyl)-2-hydroxyethyl]amide HCl hydrate], the “solid form after purging with dry nitrogen” value (relative humidity decreased from 36.9% to 1.0% after about 73 minutes) is listed as “determined to be a new form, designated Form D”.

With `CC(C)Nc1cc(-c2c[nH]c(C(=O)N[C@H](CO)c3cccc(Cl)c3)c2)c(Cl)cn1` [Form D, 4-(5-Chloro-2-isopropylaminopyridin-4-yl)-1H-pyrrole-2-carboxylic acid [1-(3-chlorophenyl)-2-hydroxyethyl]amide HCl], the “solid form upon sorption of water” value (sorption of water) is “observed to be Form A”.
